Reference: patent US20130178453A1, “Cannabinoid Agonists” (priority 2010, published 2013)
Where two headings read alike, the source gives them in different places.

Legend:
hCB1 [1] = molecular target: T1, hCB1 (Homo sapiens, UniProt P21554); assay: hCB1 radioligand binding assay ([3H]-CP 55,940 displacement); settings: HEK membranes
Excerpt: (§1) cDNA expression clones for human CB 1 (hCB1, Genbank Accession No. AY225225) and human CB2 (hCB2, Genbank Accession No. AY242132) expressed in vector pcDNA3.1+ were purchased from UMR cDNA Resource Center, Rolla, Mo. (Clone ID CNR01L000 for hCB1; CNR0200000 for hCB2).
Stable, HEK-293-derived cell lines that recombinantly express hCB1 or hCB2 were established. In brief, the clone hCB1 (CNR1L) or hCB2 (CNR2) was transfected into human embryonic kidney cells (HEK-293) using Lipofectamine 2000 (Gibco, Cat#11668-019) according to the manufacturer's protocol. Transfected clones were isolated by single colony purification and clones were screened for receptor expression using a whole cell, ^3H—CP 55,940 radioligand binding assay. HEK-293 stable cells were maintained in Dulbecco's modified Eagles medium (DMEM) containing 10% fetal bovine serum, 2 mM L-glutamine and 0.5 mg/mL G-418.
(§2) Membranes were isolated from transfected cells as follows. Monolayers of cultured cells were washed twice with phosphate-buffered saline (PBS). Cells were scraped into 20 mM HEPES, pH 7.4, 10 mM EDTA containing complete cocktail protease inhibitors (Roche, Catalog #11 697 498 001), and were homogenized by an electric-powered mechanical probe homogenizer (Omni GLH; probe G7-195S) for 40 seconds at 7000 rpm. Homogenates were centrifuged 10 minutes at 1000×g at 4° C. The supernatant was collected and was centrifuged for 1 hour at 40,000×g. The supernatant was then decanted and the resulting pellet was re-suspended in 20 mM HEPES, pH 7.4, 5 mM MgCl2, 1 mM EDTA, 10% sucrose with complete cocktail protease inhibitors. Protein concentration of membrane suspensions were measured by Bradford Protein Assay using bovine serum albumin as the standard (BioRad catalog #500-0006). Protein concentrations of membrane suspensions were adjusted with the final buffer in the range of 5 to 10 mg/mL and were stored at −80° C. until further use.
Radioligand binding assays were performed by incubating membranes (2-10 μg protein) prepared from HEK-293 cells expressing recombinant human cannabinoid receptors, CB 1 or CB2, at room temperature with 0.5 nM cannabinoid receptor agonist, [^3H]-CP 55,940 (Perkin Elmer, catalog #NET 1051) in 0.2 mL of binding buffer (50 mM Tris-HCl, pH 7.5, 5 mM MgCl2, 2.5 mM EDTA) and 0.1% fatty acid free bovine serum albumin (Sigma Cat. #A0821) for 90 minutes. A rapid filtration technique using Millipore FB filter plates (Catalog #MADVNOB) and filtration apparatus (Millipore system Catalog MAVM0960R) with vacuum aspiration was used to harvest and rinse labeled membranes (8 times with 0.2 mL of chilled binding buffer). The radioactivity bound to the filters was counted with 0.05 mL of liquid scintillant (UltraGold MV, PerkinElmer catalog #6013159) in a scintillation counter (Perkin Elmer Microbeta instrument). Nonspecific binding was determined in the presence of unlabeled 1 μM CP 55,940 (Sigma Aldrich, catalog #C1112). Binding data were analyzed using GraphPad Prism (GraphPad Software, Inc. San Diego, Calif.).

hCB2 [2] = molecular target: T2, hCB2 (Homo sapiens, UniProt P34972); assay: hCB2 radioligand binding assay ([3H]-CP 55,940 displacement); settings: HEK membranes
Protocol: as §1
as §2, with “Cells were scraped into 20 mM HEPES, pH 7.4, 10 mM EDTA containing complete cocktail protease inhibitors (Roche, Catalog #11 697 498 001), and were homogenized by an electric-powered mechanical probe homogenizer (Omni GLH; probe G7-195S) for 40 seconds at 7000 rpm.” left out
A rapid filtration technique using Millipore FB filter plates (Catalog #MADVNOB) and filtration apparatus (Millipore system Catalog MAVM0960R) with vacuum aspiration was used to harvest and rinse labeled membranes (8 times with 0.2 mL of chilled binding buffer). […] Binding data were analyzed using GraphPad Prism (GraphPad Software, Inc. San Diego, Calif.).

hCB1 [3] = molecular target: T1, hCB1; assay: hCB1 cAMP agonist assay (HEK-293 cells); type: cell-based; settings: for hCB1 EC50 (cAMP ag, nM, HEK (96-well)): cAMP agonist
hCB2 [4] = molecular target: T2, hCB2; assay: hCB2 cAMP agonist assay (HEK-293 cells); type: cell-based
Protocol: as §1
cAMP assays were performed in HEK-293 cells stably expressing human CB 1 or CB2 receptors. […] Cells suspensions were centrifuged and the cells were washed once with PBS, were centrifuged again, and the cells were resuspended in HBSS (Hank's Balanced Salt Solution, Cellgro, Cat #21-022-CV) solution containing 10 mM HEPES and 0.1% fatty acid free BSA (Sigma, Cat #A0281). Cell suspensions were prepared at 1,500,000 cells per mL. Stock solutions of test substances (10 mM) in DMSO were diluted to 1 mM using 30% DMSO as diluent. Test substances of solutions (1 mM) were further diluted down to 3× of final assay concentrations in the above HBSS buffer containing 0.1% BSA in the presence of 90 uM forskolin (Sigma Cat#F6886). To perform the assay, 20 μL of cell suspension (1,500,000 cells/mL) were added to each well in 96 well plate and treated with 10 μL test substance solution diluted as described above. Cells and compounds were incubated at 37° C. for 30 minutes. Cells were lysed and cAMP concentration was measured using DiscoveRx-XS+ cAMP assay kit (DiscoveRx Corporation Ltd., Fremont, Calif., USA, Cat #90-0075-03), following the manufacturer's protocol. GraphPad Prism software was used to calculate EC50 values using sigmoidal dose response curve fitting. The maximal amount of cAMP produced by forskolin was defined as 100%.

hCB2 [5] = molecular target: T2, hCB2; assay: hCB2 GTPγS agonist assay (HEK-293 membranes); type: biochemical
Protocol: as §1
as §2, with “Cells were scraped into 20 mM HEPES, pH 7.4, 10 mM EDTA containing complete cocktail protease inhibitors (Roche, Catalog #11 697 498 001), and were homogenized by an electric-powered mechanical probe homogenizer (Omni GLH; probe G7-195S) for 40 seconds at 7000 rpm.” left out
^35S GTPγS binding assays were performed by incubating recombinant cell membranes prepared above (5 μg) in the presence of scintillation proximity assay beads (SPA beads, Catalog #RPNQ0252 GE Healthcare, Buckinghamshire, England) in GTPγS binding buffer [50 mM HEPES (pH 7.4), 100 mM NaCl, 5 mM MgCl2, 0.001% saponin (Sigma catalog #S4521)] supplemented with 20 uM GDP (Sigma catalog #G7127) in the presence or absence of test compound. The reaction was carried out in 96-well microplates with 0.1 nM [^35S]GTPγS (specific activity=1250 Ci/mmol; Perkin Elmer catalog #NEG030X250UC) in a final volume of 100 μL. After a 90 min room temperature incubation, the reaction was analyzed using a scintillation counter (Perkin Elmer Microbeta instrument). Binding data were analyzed using GraphPad Prism.

[6] = cAMP agonist, HEK, 96-well, read-out: hCB2 EC50 (cAMP ag, nM, HEK (96-well))

T2 sequence (P34972 whole entry): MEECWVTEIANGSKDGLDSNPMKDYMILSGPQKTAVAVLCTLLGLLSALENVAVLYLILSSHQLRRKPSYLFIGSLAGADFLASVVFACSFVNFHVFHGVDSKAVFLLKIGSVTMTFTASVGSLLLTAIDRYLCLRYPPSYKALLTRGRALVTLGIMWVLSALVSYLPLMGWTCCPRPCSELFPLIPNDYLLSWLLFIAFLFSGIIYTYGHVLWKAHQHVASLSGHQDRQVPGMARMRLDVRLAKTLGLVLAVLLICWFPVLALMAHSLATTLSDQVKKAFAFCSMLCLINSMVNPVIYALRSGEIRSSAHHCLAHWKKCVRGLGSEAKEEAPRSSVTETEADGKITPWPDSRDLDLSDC
T1 sequence (P21554 whole entry): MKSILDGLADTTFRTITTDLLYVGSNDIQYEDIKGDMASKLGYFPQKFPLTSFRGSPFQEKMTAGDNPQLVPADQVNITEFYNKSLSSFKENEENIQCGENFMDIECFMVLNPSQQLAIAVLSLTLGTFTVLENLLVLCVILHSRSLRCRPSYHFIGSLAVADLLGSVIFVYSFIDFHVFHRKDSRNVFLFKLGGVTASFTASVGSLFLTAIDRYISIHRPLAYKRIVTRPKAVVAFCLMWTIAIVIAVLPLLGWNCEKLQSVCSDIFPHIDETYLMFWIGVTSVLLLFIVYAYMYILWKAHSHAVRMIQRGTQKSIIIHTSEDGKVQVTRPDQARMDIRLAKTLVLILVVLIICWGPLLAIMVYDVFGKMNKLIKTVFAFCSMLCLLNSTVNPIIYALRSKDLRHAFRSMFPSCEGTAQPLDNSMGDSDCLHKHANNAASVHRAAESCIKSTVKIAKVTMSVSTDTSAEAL

In the case of `CCCn1c(C)c(C(=O)c2c(C)[nH]c3sccc23)c2ccccc21` [Compound I-6], the IC50 (hCB1 [1]; hCB1 IC50 (CP displ, nM, HEK)) is reported as over 10000 nM, the IC50 (hCB2 [2]; hCB2 IC50 (CP displ, nM, HEK)) is reported as over 10000 nM and the “hCB1 EC50 (cAMP ag, nM, HEK (96-well))” value (hCB1 [3]) is reported as “NS (“Not Significant,” which means less than 30% agonist activity when compared to the positive control)”.

In the case of `CCCn1c(C(=O)c2c(C)n(CCC)c3sccc23)cc2ccccc21` [Compound I-14], the IC50 (hCB1 [1]; hCB1 IC50 (CP displ, nM, HEK)) is reported as 100 to 1000 nM, the EC50 (hCB2 [4]) is reported as 100 to 1000 nM and the IC50 (hCB2 [2]; hCB2 IC50 (CP displ, nM, HEK)) is reported as 100 to 1000 nM. The EC50 (hCB2 [5]) was 100 to 1000 nM and the “hCB1 EC50 (cAMP ag, nM, HEK (96-well))” value (hCB1 [3]) was “NS (“Not Significant,” which means less than 30% agonist activity when compared to the positive control)”.

In the case of `CCn1c(C(=O)c2c(C)n(CC3CCOCC3)c3ccccc23)cc2ccsc21` [Compound I-17], the IC50 (hCB1 [1]; hCB1 IC50 (CP displ, nM, HEK)) is reported as 100 to 1000 nM, the EC50 (hCB2 [4]) is reported as under 100 nM and the IC50 (hCB2 [2]; hCB2 IC50 (CP displ, nM, HEK)) is reported as under 100 nM. For the same compound, the EC50 (hCB2 [5]) was under 100 nM and the EC50 (hCB1 [3]) was 100 to 1000 nM.

`CCn1c(C(=O)c2c(C)n(CCCNS(C)(=O)=O)c3ccccc23)cc2ccsc21` [Compound I-19] gave an IC50 (hCB1 [1]; hCB1 IC50 (CP displ, nM, HEK)) of 1000 to 10000 nM, an EC50 (hCB2 [4]; [6]) of under 100 nM and an IC50 (hCB2 [2]; hCB2 IC50 (CP displ, nM, HEK)) of under 100 nM. For the same compound, the EC50 (hCB2 [5]; GTPγS agonist, HEK membranes, read-out: hCB2 EC50 (GTPyS ag, nM, HEK)) was under 100 nM and the “hCB1 EC50 (cAMP ag, nM, HEK (96-well))” value (hCB1 [3]) was “NS (“Not Significant,” which means less than 30% agonist activity when compared to the positive control)”.

Compound `C=CCn1cc(C(=O)c2cc3ccsc3n2CC)c2cnccc21` [Compound I-21] has an IC50 (hCB1 [1]; hCB1 IC50 (CP displ, nM, HEK)) of over 10000 nM, an EC50 (hCB2 [4]) of 1000 to 10000 nM and an IC50 (hCB2 [2]; hCB2 IC50 (CP displ, nM, HEK)) of 100 to 1000 nM. It also gave an EC50 (hCB2 [5]) of 100 to 1000 nM and an EC50 (hCB1 [3]) of 100 to 1000 nM.

For `CCCn1cc(C(=O)c2cc3ccsc3n2CC)c2cnccc21` [Compound I-22], the IC50 (hCB1 [1]; hCB1 IC50 (CP displ, nM, HEK)) was 1000 to 10000 nM, the EC50 (hCB2 [4]) was under 100 nM and the IC50 (hCB2 [2]; hCB2 IC50 (CP displ, nM, HEK)) was 100 to 1000 nM. The EC50 (hCB2 [5]) was 100 to 1000 nM and the “hCB1 EC50 (cAMP ag, nM, HEK (96-well))” value (hCB1 [3]) was “NS (“Not Significant,” which means less than 30% agonist activity when compared to the positive control)”.

`CCCn1cc(C(=O)c2cc3ccsc3n2CC)c2ccncc21` [Compound I-23] was tested, and the IC50 (hCB1 [1]; hCB1 IC50 (CP displ, nM, HEK)) was 1000 to 10000 nM, the EC50 (hCB2 [4]) was under 100 nM and the IC50 (hCB2 [2]; hCB2 IC50 (CP displ, nM, HEK)) was under 100 nM. The EC50 (hCB2 [5]) was 100 to 1000 nM and the “hCB1 EC50 (cAMP ag, nM, HEK (96-well))” value (hCB1 [3]) was “NS (“Not Significant,” which means less than 30% agonist activity when compared to the positive control)”.

Work on `CCOC(=O)CCn1c(C)c(C(=O)c2cc3ccsc3n2CC)c2ccccc21` [Compound I-26] yielded an IC50 (hCB1 [1]; hCB1 IC50 (CP displ, nM, HEK)) of over 10000 nM, an EC50 (hCB2 [4]; [6]) of under 100 nM and an IC50 (hCB2 [2]; hCB2 IC50 (CP displ, nM, HEK)) of 100 to 1000 nM. The “hCB1 EC50 (cAMP ag, nM, HEK (96-well))” value (hCB1 [3]) was “NS (“Not Significant,” which means less than 30% agonist activity when compared to the positive control)”.

With `CCCn1c(C)c(C(=O)c2cc3scnc3[nH]2)c2ccccc21` [Compound I-30] the IC50 (hCB1 [1]; hCB1 IC50 (CP displ, nM, HEK)) was over 10000 nM, the IC50 (hCB2 [2]; hCB2 IC50 (CP displ, nM, HEK)) was 1000 to 10000 nM and the “hCB1 EC50 (cAMP ag, nM, HEK (96-well))” value (hCB1 [3]) was “NS (“Not Significant,” which means less than 30% agonist activity when compared to the positive control)”.

For `CCn1c(C(=O)c2c(C)[nH]c3ccccc23)cc2ccsc21` [Compound I-38], the IC50 (hCB1 [1]; read-out: hCB1 IC50 (CP displ, nM, HEK)) was over 10000 nM, the IC50 (hCB2 [2]; read-out: hCB2 IC50 (CP displ, nM, HEK)) was 1000 to 10000 nM and the “hCB1 EC50 (cAMP ag, nM, HEK (96-well))” value (hCB1 [3]) was “NS (“Not Significant,” which means less than 30% agonist activity when compared to the positive control)”.
